Data published in patent EP0455560A2, “Use of N-dichloroacetyl lysogangliosides for the selective modulation of the expression and function of CD4 determinants on the cell surface” (FIDIA S.p.A., priority 1990, dated 1991).

Experiments:
Type in all cases: cell-based
[1] = target: T1, CD₄ (Homo sapiens, UniProt P01730); test: Percentage of CD4 still expressed in Molt 3 cells after incubation in the presence of BMS serum substitute; design: percentage of CD₄ still expressed in the Molt 3 cells after incubation; endogenous in cells; host or cells: Molt 3 cells; details: 60 minutes, 37°C, 89% without agent
Experimental: Molt 3 cells (5x10⁶) were incubated with various concentrations of N-dichloroacetyl lyso GM₁ (from 1 µg/ml to 250 µg/ml) for 60 minutes at 37°C in the presence of BMS (BMS Serum Substitute, Biochrom. Kg. Seromed, Berlin, Germany). After incubation the percentage of CD₄ expressed was shown by a specific Mab for CD₄ (T₄ Coulter Clone, Coulter Electronics, Hialeah, Florida, USA). For a positive control, an experiment-was carried out with monosialoganglioside GM₁ under the same experimental conditions as reported for N-dichloroacetyl lyso GM₁.
Table 2 reports the percentage of CD₄ still expressed in the Molt 3 cells after incubation with different chemical molecules at different concentrations, as described in Example 1. The CD₄ expressed in the absence of the chemical agents during the experiment was 89%.

[2] = system: CD₃; test: Mean fluorescence intensity of human lymphocytes stained with anti CD3 Mab after incubation with the compound in the presence of serum; details: 37°C, one hour
Experimental: (§1) Human lymphocytes were incubated at various concentrations of the modified ganglioside N-dichloroacetyl lyso GM₁. The cells were stained using monoclonal antibodies (Mab) specific for CD₄, CD₈, CD₃ (T₄, T₈, T₃ Coulter Clone, Coulter Electronics, Hialeah, Florida, USA) and OKT₄ (Ortho Diagnostics, Raritan, New Jersey, USA), these monoclonal antibodies being coupled to fluorescein. By measuring the mean fluorescence intensity (MFI) of the labelled cell population at each concentration of N-dichloroacetyl lyso GM₁, it was possible to quantify how much N-dichloroacetyl lyso GM₁ is necessary to produce 50% inhibition of the fluorescence (I₅₀). The I₅₀ value for […] lymphocytes was 5 µM. The concentration of the composition of N-dichloroacetyl lyso GM₁ at which the fluorescence intensity measurement was 0% was resolved experimentally.
(§2) Specifically, human cells were incubated with saline solution at various concentrations of N-dichloroacetyl lyso GM₁ in the presence of serum at 37°C for one hour. The cells were then washed, incubated with suitable monoclonal antibodies, fixed with 1% formalin and analyzed by MFI after excitation at […] laser length.

[3] = target: T1, CD₄; test: Mean fluorescence intensity of human lymphocytes stained with anti CD4 Mab after incubation with the compound in the presence of serum; design: endogenous in cells; host or cells: human lymphocytes; details: for Mean fluorescence intensity (% of positive control): anti CD4 Mab, serum, 37°C, one hour
Experimental: as §1, §2

[4] = target: T1, CD₄; test: Percentage of CD4 still expressed in Molt 3 cells after incubation in the presence of fetal calf serum; design: percentage of CD₄ still expressed in the Molt 3 cells after incubation; endogenous in cells; host or cells: Molt 3 cells; details: for percentage of CD₄ still expressed in the Molt 3 cells: 60 minutes, 37°C, 84% without agent; for effect of serum concentration on the modulating action on the CD₄ receptor: conclusion in words from Table 3, FCS 1% to 5%
Experimental: Molt 3 cells (5x10⁶) were incubated with different concentrations of N-dichloroacetyl lyso GM₁ (from 1 µg/ml to 125 µg/ml) for 60 minutes at 37°C in the presence of different concentrations of fetal calf serum (FCS) (from 1% to 5%). After incubation the percentage of CD₄ expressed was shown by a specific Mab for CD₄ (T₄ Coulter Clone, Coulter Electronics, Hialeah, Florida, USA).
As a positive control, an experiment with the monosialoganglioside GM₁ was carried out under the same experimental conditions as reported for N-dichloroacetyl lyso GM₁.
The CD₄ expressed in the absence of the chemical agents during the experiment was 84%.

Row | percentage of CD₄ still expressed in the Molt 3 cells ([1]; 1μg/ml) | percentage of CD₄ still expressed in the Molt 3 cells ([1]; 5μg/ml) | percentage of CD₄ still expressed in the Molt 3 cells ([1]; 25μg/ml) | percentage of CD₄ still expressed in the Molt 3 cells ([1]; 125μg/ml) | percentage of CD₄ still expressed in the Molt 3 cells ([4]; 1μg/ml, FCS 1%) | percentage of CD₄ still expressed in the Molt 3 cells ([4]; 1μg/ml, FCS 2%) | percentage of CD₄ still expressed in the Molt 3 cells ([4]; 1μg/ml, FCS 5%) | percentage of CD₄ still expressed in the Molt 3 cells ([4]; 25μg/ml, FCS 1%) | percentage of CD₄ still expressed in the Molt 3 cells ([4]; 25μg/ml, FCS 2%) | percentage of CD₄ still expressed in the Molt 3 cells ([4]; 25μg/ml, FCS 5%) | percentage of CD₄ still expressed in the Molt 3 cells ([4]; 75μg/ml, FCS 1%) | percentage of CD₄ still expressed in the Molt 3 cells ([4]; 75μg/ml, FCS 2%) | percentage of CD₄ still expressed in the Molt 3 cells ([4]; 75μg/ml, FCS 5%) | percentage of CD₄ still expressed in the Molt 3 cells ([4]; 125μg/ml, FCS 1%) | percentage of CD₄ still expressed in the Molt 3 cells ([4]; 125μg/ml, FCS 2%) | percentage of CD₄ still expressed in the Molt 3 cells ([4]; 125μg/ml, FCS 5%) | Substance | effect of serum concentration on the modulating action on the CD₄ receptor [4] | other results
1 | 75% | 74% | 47% | 13% | 70% | 73% | 77% | 44% | 55% | 64% | 47% | 50% | 55% | 30% | 49% | 50% | N-dichloroacetyl lyso GM₁ [N-dichloroacetyl lyso GM1] | increased serum concentrations do not alter its modulating action on the CD₄ receptor | Mean fluorescence intensity (% of positive control) ([2]; 2 μg/ml): 100 % of positive control; Mean fluorescence intensity (% of positive control) ([2]; 5 μg/ml, 60 min): 100 % of positive control; Mean fluorescence intensity (% of positive control) ([2]; 10 μg/ml, 60 min): 100 % of positive control; Mean fluorescence intensity (% of positive control) ([2]; 25 μg/ml, 60 min): 100 % of positive control; Mean fluorescence intensity (% of positive control) ([2]; 50 μg/ml): 100 % of positive control; Mean fluorescence intensity (% of positive control) ([3]; 2 μg/ml): 100 % of positive control; Mean fluorescence intensity (% of positive control) ([3]; 5 μg/ml): 60 % of positive control; Mean fluorescence intensity (% of positive control) ([3]; 10 μg/ml): 28 % of positive control; Mean fluorescence intensity (% of positive control) ([3]; 25 μg/ml): 0 % of positive control; Mean fluorescence intensity (% of positive control) ([3]; 50 μg/ml): 0 % of positive control; selectivity of modulation, CD₄ receptor versus CD₃ receptor ([3]; conclusion in words from Table 1, 2 to 50 μg/ml): selectively modulates the CD₄ receptor without altering the CD₃ receptor; IC50 ([3]; minor lymphocytes, fluorescein-coupled Mab, MFI, read-out: 50% inhibition of the fluorescence (I₅₀)): 5 µM
2 | 88% | 81% | 52% | 0% | 82% | 84% | 85% | 80% | 83% | 81% | 50% | 80% | 83% | 10% | 25% | 72% | monosialoganglioside GM₁ [GM1, reference compound] | this modulating action disappears in the presence of serum | 
